Measured values taken from ChEMBL document CHEMBL4616619, “Acetylene Group, Friend or Foe in Medicinal Chemistry” (J Med Chem, 2020).
≈ marks a conversion by molar mass, not a printed value.

How the values were obtained:
[1] = Substrate activity at UDP-glucuronosyltransferase in cynomolgus monkey microsomes assessed as Vmax; assay type: ADME, Macaca fascicularis
[2] = Plasma clearance in iv dosed cynomolgus monkey; assay type: ADME, organism-based, Macaca fascicularis
[3] = Half life in cynomolgus monkey; assay type: ADME, Macaca fascicularis; conditions: in vivo
[4] = target: T1, Amine oxidase [flavin-containing] A (Homo sapiens, UniProt P21397); assay: Inhibition of human MAO-A using Tyramine hydrochloride as substrate preincubated for 30 mins followed by substrate addition and measured for 1 hr by fluorometric method
T1 sequence (P21397 whole entry): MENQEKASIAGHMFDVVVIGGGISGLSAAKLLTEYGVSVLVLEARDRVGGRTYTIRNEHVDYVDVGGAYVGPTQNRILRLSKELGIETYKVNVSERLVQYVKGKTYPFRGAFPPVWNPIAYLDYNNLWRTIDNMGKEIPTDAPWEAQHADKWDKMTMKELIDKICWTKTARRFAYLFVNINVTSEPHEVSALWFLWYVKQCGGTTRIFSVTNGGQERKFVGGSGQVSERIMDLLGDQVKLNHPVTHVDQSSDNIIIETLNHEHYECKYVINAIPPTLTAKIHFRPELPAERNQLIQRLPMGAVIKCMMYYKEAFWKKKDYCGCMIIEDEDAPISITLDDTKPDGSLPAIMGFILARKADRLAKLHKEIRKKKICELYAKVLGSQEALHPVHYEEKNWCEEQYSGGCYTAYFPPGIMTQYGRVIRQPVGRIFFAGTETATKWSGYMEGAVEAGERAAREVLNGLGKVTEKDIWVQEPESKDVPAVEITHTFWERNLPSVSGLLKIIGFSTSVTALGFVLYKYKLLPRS

[5] = Cytotoxicity against human MT2 cells; assay type: cell-based
[6] = test system: Human immunodeficiency virus 1; assay: Antiviral activity against HIV1 3B infected in human MT2 cells; assay type: functional, organism-based; conditions: Human immunodeficiency virus 1, 3B
[7] = target: T2, Dihydropyrimidine dehydrogenase [NADP(+)] (Bos taurus) (UniProt Q28007); assay: Inactivation of bovine liver DHPDHase assessed as Kinact in presence of NADPH
T2 sequence (whole entry): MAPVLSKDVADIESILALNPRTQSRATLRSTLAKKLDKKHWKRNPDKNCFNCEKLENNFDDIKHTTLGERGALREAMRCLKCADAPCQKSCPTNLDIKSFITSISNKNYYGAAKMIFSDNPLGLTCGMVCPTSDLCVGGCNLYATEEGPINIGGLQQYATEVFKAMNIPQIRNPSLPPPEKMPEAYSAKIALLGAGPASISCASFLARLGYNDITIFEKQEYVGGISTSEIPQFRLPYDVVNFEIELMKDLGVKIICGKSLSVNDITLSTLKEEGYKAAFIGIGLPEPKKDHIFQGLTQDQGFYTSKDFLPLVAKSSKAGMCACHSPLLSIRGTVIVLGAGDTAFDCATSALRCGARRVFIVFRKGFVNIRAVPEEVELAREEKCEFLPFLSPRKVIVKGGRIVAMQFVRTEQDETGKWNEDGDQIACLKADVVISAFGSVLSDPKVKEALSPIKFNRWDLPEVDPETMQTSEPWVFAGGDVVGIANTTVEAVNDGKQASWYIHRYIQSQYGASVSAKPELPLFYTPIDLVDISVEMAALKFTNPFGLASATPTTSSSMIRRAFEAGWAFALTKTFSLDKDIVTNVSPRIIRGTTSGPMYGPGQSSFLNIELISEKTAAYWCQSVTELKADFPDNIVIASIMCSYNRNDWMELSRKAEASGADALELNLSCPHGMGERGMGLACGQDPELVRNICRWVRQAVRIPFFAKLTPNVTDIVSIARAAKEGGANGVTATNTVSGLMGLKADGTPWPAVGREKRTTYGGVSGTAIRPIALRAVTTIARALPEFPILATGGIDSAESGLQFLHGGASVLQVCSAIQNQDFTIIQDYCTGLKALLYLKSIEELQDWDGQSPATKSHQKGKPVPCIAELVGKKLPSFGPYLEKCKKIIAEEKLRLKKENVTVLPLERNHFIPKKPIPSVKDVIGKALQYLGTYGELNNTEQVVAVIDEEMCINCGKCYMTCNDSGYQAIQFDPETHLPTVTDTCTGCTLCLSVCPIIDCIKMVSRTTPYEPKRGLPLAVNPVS

[8] = Half life in human plasma at 25 uM after 1 to 3 hrs by reversed-phase HPLC; assay type: ADME, cell-free
[9] = Stability in human liver microsomes assessed as compound metabolized at 25 uM after 30 mins in presence of NADPH by HPLC analysis; assay type: ADME, Microsome; conditions: read-out: Drug metabolism
[10] = Thermodynamic aqueous solubility of compound in pH 7 buffer at 1 to 2 mg after 4 hrs by HPLC analysis; assay type: physicochemical; conditions: read-out: Therm_solubility
Human rhinovirus sp. = assay: Antiviral activity against Human rhinovirus; assay type: functional, organism-based
[11] = target: T1, Amine oxidase [flavin-containing] A; assay: Inhibition of human MAO-A
[12] = test system: Human immunodeficiency virus 1; assay: Antiviral activity against HIV-1 3B infected in human MT4 cells incubated for 5 days by MTT assay; assay type: functional, organism-based; conditions: Human immunodeficiency virus 1, 3B, MT4, 120 h
[13] = Cytotoxicity against human MT4 cells; assay type: cell-based
[14] = Selectivity ratio of CC50 for human MT4 cells to IC50 for HIV-1 3B; assay type: toxicity; conditions: read-out: Ratio CC50/IC50
[15] = Cmax in rhesus monkey at 8 mg/kg, po; assay type: ADME, organism-based, Macaca mulatta; parameters: dose 8 mg/kg, route oral; conditions: in vivo
Poliovirus 1 = assay: Antiviral activity against Poliovirus type 1 Mahoney infected in African green monkey BSC1 cells by crystal violet staining based plaque reduction assay; assay type: functional, organism-based; conditions: Enterovirus C, BSC-1
Acetylcholinesterase = Acetylcholinesterase (Homo sapiens, UniProt P22303); assay: Inhibition of acetylcholinesterase (unknown origin)
Cholinesterase = Cholinesterase (Homo sapiens, UniProt P06276); assay: Inhibition of butyrylcholinesterase (unknown origin)
rhinovirus B14 = assay: Antiviral activity against Human rhinovirus 14 infected in HeLa […] cells after 2 days by XTT/PMS assay; assay type: functional, organism-based; conditions: Rhinovirus B, 48 h
Homo sapiens = species on record: Homo sapiens; assay: Inactivation of CYP2B1 (unknown origin) assessed as Kinact
[16] = Inactivation of CYP2B1 (unknown origin); parameters: species or system Homo sapiens
[17] = target: T3, Thymidine kinase, cytosolic (Homo sapiens, UniProt P04183); assay: (§1) Substrate activity at human thymidine kinase 1 assessed as Km incubated for 24 hrs; assay type: ADME
T3 sequence (P04183 whole entry): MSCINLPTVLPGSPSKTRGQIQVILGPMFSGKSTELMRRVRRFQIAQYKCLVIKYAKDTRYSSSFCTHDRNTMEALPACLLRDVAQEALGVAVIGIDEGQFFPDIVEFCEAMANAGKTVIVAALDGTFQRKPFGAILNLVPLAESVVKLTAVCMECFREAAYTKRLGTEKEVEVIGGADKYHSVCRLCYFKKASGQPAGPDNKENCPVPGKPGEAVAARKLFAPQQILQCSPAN

[18] = substrate: C#C[C@@]1(CO)C=C[C@H](n2cc(C)c(=O)[nH]c2=O)O1; assay: as §1; assay type: ADME

Chain of Cholinesterase (P06276 whole entry): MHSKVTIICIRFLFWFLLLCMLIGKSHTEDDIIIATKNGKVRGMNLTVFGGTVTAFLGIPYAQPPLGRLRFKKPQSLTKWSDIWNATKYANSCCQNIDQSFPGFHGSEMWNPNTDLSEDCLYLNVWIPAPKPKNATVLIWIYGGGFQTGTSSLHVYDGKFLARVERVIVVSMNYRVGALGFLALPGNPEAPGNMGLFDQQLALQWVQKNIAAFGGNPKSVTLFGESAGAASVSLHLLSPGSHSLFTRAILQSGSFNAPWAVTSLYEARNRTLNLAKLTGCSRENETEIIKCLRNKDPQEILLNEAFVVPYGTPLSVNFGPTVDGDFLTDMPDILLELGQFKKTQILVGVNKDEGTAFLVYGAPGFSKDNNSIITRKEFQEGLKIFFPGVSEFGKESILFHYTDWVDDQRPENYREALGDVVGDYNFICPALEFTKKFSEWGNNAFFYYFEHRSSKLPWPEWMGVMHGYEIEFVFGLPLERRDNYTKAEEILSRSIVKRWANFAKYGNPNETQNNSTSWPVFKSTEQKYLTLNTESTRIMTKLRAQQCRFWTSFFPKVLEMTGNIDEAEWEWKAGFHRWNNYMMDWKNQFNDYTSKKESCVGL
Chain of Acetylcholinesterase (P22303 whole entry): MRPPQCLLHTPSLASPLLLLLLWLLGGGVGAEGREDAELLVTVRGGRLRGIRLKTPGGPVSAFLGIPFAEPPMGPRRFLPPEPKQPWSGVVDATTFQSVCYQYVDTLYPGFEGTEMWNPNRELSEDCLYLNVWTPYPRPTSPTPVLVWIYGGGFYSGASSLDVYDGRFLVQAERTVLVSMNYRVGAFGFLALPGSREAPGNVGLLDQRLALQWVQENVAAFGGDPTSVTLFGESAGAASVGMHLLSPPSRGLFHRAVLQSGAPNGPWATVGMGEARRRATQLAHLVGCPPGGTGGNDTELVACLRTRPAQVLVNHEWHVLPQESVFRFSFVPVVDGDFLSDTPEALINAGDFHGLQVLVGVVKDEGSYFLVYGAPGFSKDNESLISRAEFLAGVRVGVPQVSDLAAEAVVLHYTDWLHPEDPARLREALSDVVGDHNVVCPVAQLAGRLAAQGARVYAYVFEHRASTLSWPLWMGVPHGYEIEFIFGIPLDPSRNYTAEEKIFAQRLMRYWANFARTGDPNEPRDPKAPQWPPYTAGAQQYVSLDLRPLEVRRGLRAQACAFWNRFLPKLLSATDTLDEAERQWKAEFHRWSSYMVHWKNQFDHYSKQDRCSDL

CC(/C=C/c1cccc(Oc2ccc(F)cc2)c1)N(O)C(N)=O (stereo unspecified) showed a Vmax [1] of 0.19 nmol/min/mg, a clearance [2] of 2 mL/min/kg and a half-life [3] of 4.7 h.

C#CCN(C)c1nc(NCCCCC2CCN(Cc3ccccc3)CC2)c(C#N)cc1C#N showed an IC50 [4] greater than 0.1 µM.

For C#C[C@@]1(CO)C=C[C@H](n2cc(C)c(=O)[nH]c2=O)O1 [CENSAVUDINE], the CC50 [5] was greater than 256 µM and the EC50 [6] was 0.25 µM.

For [N-]=[N+]=C1C=NC(=O)NC1=O, the Kinact [7] was 1.68 min⁻¹.

With CC(c1cc2ccccc2s1)N(O)C(N)=O (stereo unspecified) [ZILEUTON] the Vmax [1] was 1.2 nmol/min/mg, the clearance [2] was 14 mL/min/kg and the half-life [3] was 0.4 h.

Cc1cn([C@H]2C=C[C@@](C#N)(CO)O2)c(=O)[nH]c1=O showed a CC50 [5] greater than 100 µM and an EC50 [6] of 7 µM.

In the case of Oc1ncc(/C=C/Br)c(O)n1, the Kinact [7] is reported as 0.6 min⁻¹.

With CC(C#Cc1cccc(Oc2ccc(F)cc2)c1)N(O)C(N)=O (stereo unspecified) [FENLEUTON] the Vmax [1] was 0.05 nmol/min/mg, the clearance [2] was 1.3 mL/min/kg and the half-life [3] was 5.5 h.

Work on C#CC[C@@H](C(=O)N[C@H](/C=C/C(=O)OCC)CC1CCNC1=O)n1cccc(NC(=O)c2cc(C)on2)c1=O (stereo partly specified) yielded a half-life at 25 µM [8] of 6.6 h, a metabolised at 0.5 h, 25 µM [9] of 40% and a solubility thermodynamic at 4 h [10] of 377 µg/mL (≈ 720 µM). The EC50 (Human rhinovirus sp.) was 0.058 µM.

C#CCN[C@@H]1CCc2ccc(OC(=O)N(C)CC)cc21 [LADOSTIGIL] showed an IC50 [11] greater than 100 µM.

Work on CC(C#Cc1ccc(Cc2ccc(F)cc2)s1)N(O)C(N)=O (stereo unspecified) yielded a half-life [3] of 14.5 h.

With C#C[C@]1(CO)O[C@@H](n2cnc3c(N)nc(F)nc32)C[C@@H]1O the IC50 [12] was 0.0003 µM, the CC50 [13] was 19.2 µM and the selectivity ratio [14] was greater than 60000.

In the case of C#Cc1c[nH]c(=O)[nH]c1=O, the Kinact [7] is reported as 5.64 min⁻¹.

Molecule C#C/C=C(\c1ccccc1)c1ccc2nc(N)n(S(=O)(=O)C(C)C)c2c1 has a Cmax [15] of 70 to 300 ng/mL and an IC50 (Poliovirus 1) of 0.02 µg/mL (≈ 0.0547 µM).

In the case of O=c1[nH]cc(Br)c(=O)[nH]1, the Kinact [7] is reported as 0.42 min⁻¹.

C/C=C(\c1ccccc1)c1ccc2nc(N)n(S(=O)(=O)C(C)C)c2c1 showed a Cmax [15] of 14 to 140 ng/mL and an IC50 (Poliovirus 1) of 0.06 µg/mL (≈ 0.169 µM).

Work on C#CCNCc1cc2cc(OCc3ccccc3)ccc2[nH]1 yielded an IC50 (Acetylcholinesterase) greater than 100 µM and an IC50 (Cholinesterase) greater than 100 µM.

Molecule CCOC(=O)/C=C/[C@H](CC1CCNC1=O)NC(=O)[C@H](Cc1ccc(F)c(F)c1)n1cccc(NC(=O)c2cc(C)on2)c1=O (stereo partly specified) has a half-life at 25 µM [8] of 1.4 h, a metabolised at 0.5 h, 25 µM [9] of 81% and an EC50 (rhinovirus B14) of 0.011 µM. For the same molecule, the solubility thermodynamic at 4 h [10] was 25 µg/mL (≈ 40.9 µM).

For C#CCN(C)[C@H](C)Cc1ccccc1 [SELEGILINE], the Kinact (Homo sapiens) was 0.23 min⁻¹ and the Ki [16] was 1 µM.

Cc1cn([C@H]2C=C[C@@H](CO)O2)c(=O)[nH]c1=O [STAVUDINE] showed a Km [17] of 133 µM, a CC50 [5] of 98 µM and an EC50 [6] of 1.3 µM.

Molecule N#Cc1cnc(O)nc1O has a Kinact [7] of 0.78 min⁻¹.

With CC#Cn1ccc(=O)[nH]c1=O the Kinact [7] was 0.46 min⁻¹.

Work on O=c1[nH]cc(C(F)(F)F)c(=O)[nH]1 yielded a Kinact [7] of 0.23 min⁻¹.

B1: Thymidine kinase, cytosolic (Homo sapiens) (protein)
chain: MSCINLPTVLPGSPSKTRGQIQVILGPMFSGKSTELMRRVRRFQIAQYKCLVIKYAKDTRYSSSFCTHDRNTMEALPACLLRDVAQEALGVAVIGIDEGQFFPDIVEFCEAMANAGKTVIVAALDGTFQRKPFGAILNLVPLAESVVKLTAVCMECFREAAYTKRLGTEKEVEVIGGADKYHSVCRLCYFKKASGQPAGPDNKENCPVPGKPGEAVAARKLFAPQQILQCSPAN
Molecule B1 has a Km [18] of 53 µM.
